Source: BindingDB's records for doi:10.1021/jm00053a025 (University of Minnesota, 1993)

Assay: Binding affinity for delta opioid receptor was determined using radioligand [3H]DPDPE in Guinea pig brain membranes.

`CCCCC(=N)NCc1ccc2[nH]c3c(c2c1)C[C@@]1(O)C2Cc4ccc(O)c5c4[C@@]1(CCN2CC1CC1)C3O5` (stereo partly drawn) [22-cyclopropylmethyl-7-(1-iminopentylaminomethyl)-(2S)-14-oxa-11,22-diazaheptacyclo[13.9.1.01,13.02,21.04,12.05,10.019,25]pentacosa-4(12),5(10),6,8,15,17,19(25)-heptaene-2,16-diol] showed a Ki of 5.5 nM.
